The values below come from US6794385B2, “Benzoxazine derivatives useful as integrin receptor antagonists” (Pharmacia & Upjohn, S.p.A., priority 2001, dated 2004).

Experiment [1] addresses T1, αIIbβ3 integrin (human fibrinogen receptor) (Homo sapiens, UniProt P05106+P08514).
T1 construct: was purified from human platelets; from tissue; host or cells: human platelets
Description: αIIbβ3-fibrinogen binding assay (solid phase). As to conditions: inhibition of biotinylated fibrinogen (10 nM) binding to coated αIIbβ3; read-out: αIIbβ3 (IC50 μmol). As for the experimental part: A solid phase assay for the study of αIIbβ3-fibrinogen binding was set up on according to the method described for αvβ3. αIIbβ3 integrin was diluted into coating buffer (CB) containing 150 mM NaCl, 1 mM CaCl2, 1 mM MgCl2, 1 mM MnCl2, 20 mM TRIS, pH 7.4 at a concentration of 3 μg/ml. Into 96-well plates, 50 μl of the diluted integrin were added and allowed to bind to the plate walls overnight at 4° C. Next day, the assay plates were emptied and 100 μl of blocking buffer (CB buffer with 3% BSA) were added to each well for 45 min at 37° C. […] Then, the plates were washed as described and 50 μl of ready to use Turbo-TMB substrate for peroxydase were added to each well. After 30 minutes incubation at room temperature, the colour development was stopped with 50 μl sulphuric acid 0.38 M and the plates were read at a wavelength of 450 nm with a Packard plate reader. The values obtained were analysed by four parameters curve fit with the computer program GraphPad Prism, after normalization by a maximum binding control (Bmax) detected in wells where no competitor was added, and a minimum binding control (NSB) detected in wells where no integrin was coated. […]

For a further experiment, the target named is T2, human αvβ3 integrin (Homo sapiens, UniProt P05106+P06756).
T2 construct: was purified from human placenta; from tissue; host or cells: human placenta
Nature of the experiment: αvβ3-vitronectin binding assay (solid phase). As to conditions: for IC50: inhibition of biotinylated vitronectin (5 nM) binding to coated αvβ3, read-out: αvβ3 (IC50 μmol); for ratio between αIIbβ3 and αvβ3 inhibiting activity: selectivity, αIIbβ3 IC50 over αvβ3 IC50. The procedure: A solid phase assay for the study of αvβ3-vitronectin binding was set up on the basis of already published methods (Wong et al., Molecular Pharmacology 50: 529-537, 1996; Brooks et al., Cell 85: 683-693, 1996). The human αvβ3 integrin was diluted into coating buffer (CB) containing 150 mM NaCl, 1 mM CaCl2, 1 mM MgCl2, 1 mM MnCl2, 20 mM TRIS, pH 7.4 at a concentration of 1.5 μg/ml. Into 96-well plates, 50 μl of the diluted integrin were added and allowed to bind to the plate walls overnight at 4° C. Next day, the assay plates were emptied and 100 μl of blocking buffer (CB buffer with 3% BSA) were added to each well for 45 min at 37° C. After the incubation, the plates were washed three times with 100 μl assay buffer (AB, CB buffer with 0.1% BSA). Serial 1:1 dilution (25 μl/well) of the test compounds were added to the plates, starting from 10 mM solutions in 100% DMSO diluted to 100 µM in AB. The binding reaction was started by addition (25 μl/well) of 10 nM biotinylated vitronectin (final concentration: 5 nM), and lasted 30 min at 37° C. The concentration range of the tested compounds spanned from 50 to 0.0005 μM. At the end of the co-incubation, the assay plates were washed as before and 70 μl of a 1:1000 AB dilution of peroxydase-conjugated streptavidin were added per well and were allowed to react for 45 min at 37° C. Then, the plates were washed as described and 50 μl of ready to use Turbo-TMB substrate for peroxydase were added to each well. After 30 minutes incubation at room temperature, the colour development was stopped with 50 μl sulphuric acid 0.38 M and the plates were read at a wavelength of 450 nm with a Packard plate reader. The values obtained were analyzed by four parameters curve fit in the computer program GraphPad Prism, after normalization by a maximum binding control (Bmax) detected in wells where no competitor was added, and a minimum binding control (NSB) detected in wells where no integrin was coated. Under standard assay conditions, A450 was never under 1.0 for Bmax, and around 0.15 for NSB.
Human vitronectin receptor ([…]v[…]3) was purified from human placenta (Pytela et al., Methods in Enzymology, 144: 475-489, 1987). Turbo-TMB was from PIERCE (34022). BSA (A4503), Vitronectin (V8379), RGD peptide (G4144) and all generic reagents were from SIGMA. Vitronectin was biotinylated according to the procedure indicated in the NHS biotinylation kit from PIERCE (21420). Horseradish peroxydase-streptavidin was from Amersham (RPN1231). 96-well plates were from Costar (#3690, EIA/RIA plate, ½ area flat bottom, high binding).

SMILES strings stand for the structures.

T2 sequence (P06756 31-889 limits assumed): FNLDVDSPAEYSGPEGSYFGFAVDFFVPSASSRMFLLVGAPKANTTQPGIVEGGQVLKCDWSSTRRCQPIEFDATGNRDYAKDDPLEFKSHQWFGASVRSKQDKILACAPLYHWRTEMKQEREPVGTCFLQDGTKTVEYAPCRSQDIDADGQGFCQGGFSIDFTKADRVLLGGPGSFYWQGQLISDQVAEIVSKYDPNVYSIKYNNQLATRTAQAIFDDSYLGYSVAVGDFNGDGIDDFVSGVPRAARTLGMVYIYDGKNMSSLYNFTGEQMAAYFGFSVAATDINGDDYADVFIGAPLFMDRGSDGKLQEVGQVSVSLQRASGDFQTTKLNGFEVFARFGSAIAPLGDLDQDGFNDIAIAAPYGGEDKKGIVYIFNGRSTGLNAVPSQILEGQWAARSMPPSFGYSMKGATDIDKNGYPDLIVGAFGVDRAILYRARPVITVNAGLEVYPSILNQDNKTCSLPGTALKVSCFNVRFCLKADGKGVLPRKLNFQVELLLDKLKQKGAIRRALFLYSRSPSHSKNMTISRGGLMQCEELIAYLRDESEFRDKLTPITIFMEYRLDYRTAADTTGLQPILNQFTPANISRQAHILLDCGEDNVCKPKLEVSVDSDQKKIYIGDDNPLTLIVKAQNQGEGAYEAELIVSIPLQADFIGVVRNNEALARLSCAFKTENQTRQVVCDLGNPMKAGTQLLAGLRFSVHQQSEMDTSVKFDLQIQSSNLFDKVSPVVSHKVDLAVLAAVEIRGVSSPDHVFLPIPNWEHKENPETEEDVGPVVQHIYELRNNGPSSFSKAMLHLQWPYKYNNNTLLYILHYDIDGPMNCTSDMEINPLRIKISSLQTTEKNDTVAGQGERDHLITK
T2 sequence (P06756 891-1048 partner limits assumed): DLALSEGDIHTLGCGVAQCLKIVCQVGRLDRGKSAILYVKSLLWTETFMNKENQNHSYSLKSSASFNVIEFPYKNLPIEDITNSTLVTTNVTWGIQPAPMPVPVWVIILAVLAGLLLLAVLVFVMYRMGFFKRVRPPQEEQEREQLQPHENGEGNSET
T2 sequence (P05106 27-788): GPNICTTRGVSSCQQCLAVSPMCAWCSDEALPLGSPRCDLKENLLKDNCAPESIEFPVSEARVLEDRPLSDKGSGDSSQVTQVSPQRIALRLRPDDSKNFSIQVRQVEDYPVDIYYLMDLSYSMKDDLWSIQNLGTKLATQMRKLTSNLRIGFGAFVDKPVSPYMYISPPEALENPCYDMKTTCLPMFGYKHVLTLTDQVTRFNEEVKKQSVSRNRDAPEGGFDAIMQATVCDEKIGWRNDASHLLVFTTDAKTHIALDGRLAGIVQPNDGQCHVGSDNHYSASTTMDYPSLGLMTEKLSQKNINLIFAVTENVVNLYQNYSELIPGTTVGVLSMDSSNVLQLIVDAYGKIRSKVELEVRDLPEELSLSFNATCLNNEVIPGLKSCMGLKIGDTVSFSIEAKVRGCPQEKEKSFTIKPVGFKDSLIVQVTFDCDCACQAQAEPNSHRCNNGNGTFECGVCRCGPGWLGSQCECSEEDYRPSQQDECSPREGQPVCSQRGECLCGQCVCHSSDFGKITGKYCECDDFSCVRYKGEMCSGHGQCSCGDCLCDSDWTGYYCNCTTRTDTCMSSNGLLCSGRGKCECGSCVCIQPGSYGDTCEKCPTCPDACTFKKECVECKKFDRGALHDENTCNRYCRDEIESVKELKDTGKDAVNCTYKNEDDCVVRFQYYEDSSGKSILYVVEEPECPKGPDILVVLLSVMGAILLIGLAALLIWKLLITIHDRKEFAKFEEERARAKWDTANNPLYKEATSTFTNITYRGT
T1 sequence (P08514 32-887 limits assumed): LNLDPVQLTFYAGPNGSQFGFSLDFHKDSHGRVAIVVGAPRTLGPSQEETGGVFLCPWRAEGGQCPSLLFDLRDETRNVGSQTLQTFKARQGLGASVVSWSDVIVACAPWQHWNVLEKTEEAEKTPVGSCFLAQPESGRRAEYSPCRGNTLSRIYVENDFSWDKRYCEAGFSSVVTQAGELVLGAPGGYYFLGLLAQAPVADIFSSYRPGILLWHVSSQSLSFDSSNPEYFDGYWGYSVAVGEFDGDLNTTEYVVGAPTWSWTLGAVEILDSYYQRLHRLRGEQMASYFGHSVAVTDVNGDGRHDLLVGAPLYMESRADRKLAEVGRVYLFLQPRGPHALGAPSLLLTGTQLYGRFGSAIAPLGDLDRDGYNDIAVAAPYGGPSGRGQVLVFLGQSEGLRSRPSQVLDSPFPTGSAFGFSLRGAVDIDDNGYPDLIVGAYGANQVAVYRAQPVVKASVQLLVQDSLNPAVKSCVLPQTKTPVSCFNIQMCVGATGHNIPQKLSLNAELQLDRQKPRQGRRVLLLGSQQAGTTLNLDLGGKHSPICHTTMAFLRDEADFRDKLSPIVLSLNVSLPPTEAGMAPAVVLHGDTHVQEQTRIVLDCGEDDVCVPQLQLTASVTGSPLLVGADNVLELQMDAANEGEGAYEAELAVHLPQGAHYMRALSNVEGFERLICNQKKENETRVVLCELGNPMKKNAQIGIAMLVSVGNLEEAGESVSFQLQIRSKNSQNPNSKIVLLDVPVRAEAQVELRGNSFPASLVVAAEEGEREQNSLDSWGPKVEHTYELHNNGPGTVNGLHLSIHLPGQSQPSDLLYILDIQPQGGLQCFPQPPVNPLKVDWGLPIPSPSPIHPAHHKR
T1 sequence (P08514 891-1039 partner limits assumed): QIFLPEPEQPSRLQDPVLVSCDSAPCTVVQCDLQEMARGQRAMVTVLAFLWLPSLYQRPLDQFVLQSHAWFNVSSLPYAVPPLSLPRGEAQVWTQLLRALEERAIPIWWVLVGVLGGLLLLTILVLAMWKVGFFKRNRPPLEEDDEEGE
T1 sequence (P05106 27-788): as the sequence (P05106 27-788) above

What is called IC50 is the point on the concentration scale where inhibition reaches its midpoint. As to `O=C(O)CC1CN(c2ccccc2)c2cc(NC(=O)CCNc3ccccn3)ccc2O1` (stereo not drawn) [Compound 1a, (4-phenyl-6-{[3-(2-pyridinylamino)propanoyl]amino}-3,4-dihydro-2H-1,4-benzoxazin-2-yl)acetic acid], the IC50 in experiment [1] came to 30 µM; on human αvβ3 integrin, 0.044 ± 0.025 µM. The “ratio between αIIbβ3 and αvβ3 inhibiting activity” value at human αvβ3 integrin is listed as “about 1,000”.

`O=C(O)CC1CN(c2ccccc2)c2cc(NC(=O)CCCNc3ccccn3)ccc2O1` (stereo not drawn) [Compound 1b, (4-phenyl-6-{[4-(2-pyridinylamino)butanoyl]amino}-3,4-dihydro-2H-1,4-benzoxazin-2-yl)acetic acid]: the IC50 in experiment [1] came to 27 µM. Also, at human αvβ3 integrin, the IC50 came to 0.024 ± 0.009 µM; the “ratio between αIIbβ3 and αvβ3 inhibiting activity” value is “about 1,000”.
